Test results taken from patent publication US9581587B2, “Sperm staining and sorting methods” (INGURAN, LLC, priority 2011, dated 2017).

How the values were obtained:
sperm [1] = test: Post thaw motility and percent intact acrosomes of sex sorted, frozen-thawed sperm (Example 1); format: cell-based, bovine; details: average over all bulls; for Motility Average 3 Hour: post thaw 3 hours, treatments as E1
Experimental: Sperm was collected from 10 different bulls on a routine collection schedule using an artificial vagina over the course of 4 days. The 10 bulls included both Jersey bulls and Holstein bulls. All ejaculates contained greater than 60% progressive motility and greater than 70% morphological normal sperm. Antibiotics were added within 15 minutes of collection.
Red food dye treatment 40%—A reduced volume of red food dye No. 40 control was established. Sperm was diluted to 160×10^6 sperm per ml in a modified TALP buffer, as described in Table 1, at a pH of 7.4. Samples collected from Jersey bulls were incubated with 16 μl of Hoechst 33342 per 2 ml of sample for between 45 and 60 minutes at 34° C., while samples collected from Holstein bulls were incubated 17 μl of Hoechst 33342 per 2 ml of sample for between 45 and 60 minutes at 34° C. After incubation an equal volume of a second modified TALP was added reducing the concentration to 80×10^6. The second modified TALP includes the components described in Table 1 with the addition of 4% egg yolk, 40 μM red food dye No. 40 (20 g/L) and the pH dropped to 5.5 with HCl.
Yellow food dye was included in a second group at an equal concentration. Sperm was diluted to 160×10^6 sperm per ml in a modified TALP buffer, as described in Table 1, at a pH of 7.4. Samples collected from Jersey bulls were incubated with 14 μl of Hoechst 33342 per 2 ml of sample for between 45 and 60 minutes at 34° C., while sample collected from Holstein bulls were incubated 15 μl of Hoechst 33342 per 2 ml of sample for between 45 and 60 minutes at 34° C. After incubation an equal volume of a second modified TALP was added reducing the concentration to 80×10^6. The second modified TALP includes the components described in Table 1 with the addition 4% egg yolk, […] yellow food dye No. 6 and a pH dropped to 5.5 with HCl. […]
Straws were thawed the following day for motility measurements at 0 hour and 3 hours. Percent intact acrosomes were measured as well, and the overall averages over all bulls on each day are illustrated in Table 3. […]

sperm [2] = test: Post thaw DNA fragmentation Elk (Example 3); format: cell-based
Experimental: Each of deer and elk were collected in the Tris-egg yolk catch fluid described as a catch media in Example 1, and shipped for sorting.
A portion of each of the deer and the elk were stained by the red food dye No. 40 treatment 40% with 16 μL Hoechst 33342 and the yellow food dye No. 6 treatment with 14 μL Hoechst 33342 as described in Example 1.
Samples were each bulk sorted with the same machine and parameters described in Example 1. Both sorted X and sorted Y sperm were collected into a single catch. The sorted samples were then frozen like those described in Example 1.
Frozen thawed samples were then tested for post thaw motilities and post thaw DNA fragmentation. Post thaw motilities were slightly higher in Elk sorted with a yellow quencher, while a more significant difference existed in progressive motility. In Table 10, post thaw DNA fragmentation in Elk can be seen at about double after 48 hours when red food dye No. 40 is compared to yellow food dye No. 6 as a dead quencher.

sperm [3] = test: Post thaw motility of sorted sperm on CASA (Example 4); format: cell-based, canine; details: for Progressive / Motile: average, 0 Hr post thaw
Experimental: Sperm was collected from a single canine at room temperature into CaniPro Chill 5, available from Minitube, WI, USA, then centrifuged into a pellet and resuspended in a Tris buffer at a pH of 6.8.
Samples were extended to 40×10^6 sperm/ml in 1 ml volumes with the Tris buffer described in Example 1 but set to a pH of 7.2. Ten samples were then stained 4, 4, 5, 5, 7, 8, 8, 9, 9, and 10 μL of Hoechst 33342 and quenched with one of two quenching dyes at a concentration of 50 μM in a second buffer Tris buffer.
Red food dye No. 40 quencher—1 ml Tris at a pH 6.3 was added with red food dye No. 40 into samples stained with 4, 5, 8, 9, 10 μL Hoechst 33342. The red food dye No. 40 was added at a concentration of about 50 μM.
Yellow food dye No. 6 quencher—1 ml Tris at a pH 6.3 was added with yellow food dye No. 6 into samples stained with 4, 5, 7, 8, 9 μL Hoechst 33342. The yellow food dye No. 6 was added at the same concentration as the red food dye No. 40 quencher, at about 50 μM.
5 million cells were sex sorted with a MoFlo SX XPD into 50 mL Falcon tubes having 3.5 mL of a Tris-egg yolk catch fluid, described in Example 1 for both X and Y populations. Two samples were sorted, the red food dye No. 40 quenched treatment with 9 μL Hoechst 33342 and the yellow food dye […] quenched treatment with 7 μL Hoechst 33342.
Straws were then frozen and stored in liquid nitrogen.
Straws were thawed for 30 sec in a 38° C. water bath and their motilities were examined on CASA.
Table 12 illustrates the average motilities and progressive motilities for the sorted treatments. Canine sperm quenched with yellow food dye No. 6 provided about 4.5% more motile sperm in the X population and 6.5% more motile sperm in the Y population. Similarly, the yellow quenched dye provided 7% better progressive motility in the X population and 8% better progressive motility in the Y population.

Q: How did the “Motility Average 3 Hour” value (sperm [1]) turn out when COc1cc(S(=O)(=O)O)c(C)cc1N=Nc1c(O)ccc2cc(S(=O)(=O)O)ccc12 [Red 40, 6-hydroxy-5-[(2-methoxy-5-methyl-4-sulfophenyl)azo]-2-naphthalenesulfonic acid, reference compound] was run?
A: Its value is 47.0%.

Q: And the “post thaw DNA fragmentation compared to yellow food dye No. 6” value (sperm [2])?
A: The value was “about double”.

Q: And the DNA fragmentation Post Sort (sperm [2]; elk, 0 h)?
A: Its DNA fragmentation Post Sort is 0%.

Q: What about the DNA fragmentation Pre-sort (sperm [2]; elk, 0 h) of the same compound?
A: The DNA fragmentation Pre-sort was 2.3%.

Q: What about the DNA fragmentation Post Sort (sperm [2]; elk, 24 h) of the same compound?
A: Its DNA fragmentation Post Sort is 0.3%.

Q: And the DNA fragmentation Pre-sort (sperm [2]; elk, 24 h)?
A: The DNA fragmentation Pre-sort was 5.6%.

Q: And the DNA fragmentation Post Sort (sperm [2]; elk, 48 h)?
A: The DNA fragmentation Post Sort was 0.7%.

Q: And the DNA fragmentation Pre-sort (sperm [2]; elk, 48 h)?
A: Its DNA fragmentation Pre-sort is 6%.

Q: And the Progressive (sperm [3]; Y population)?
A: The Progressive was 13.

Q: O=S(=O)([O-])c1ccc(N=Nc2c(O)ccc3cc(S(=O)(=O)[O-])ccc23)cc1.[Na+].[Na+] [Yellow 6, Disodium 6-hydroxy-5[(4-sulfophenyl)azo]-2-naphthalenesulfononate] was tested. Which “Motility Average 0 Hour” value (sperm [1]; post thaw 0 hour, Red = red food dye No. 40 treatment 40% (16-17 μl Hoechst 33342/2 ml), Yellow = yellow food dye No. 6 (14-15 μl)) did it give?
A: Its value is 57.7%.

Q: And the “Motility Average 3 Hour” value (sperm [1])?
A: Its value is 49.0%.

Q: What about the DNA fragmentation Post Sort (sperm [2]; post thaw 0 HR) of the same compound?
A: Its DNA fragmentation Post Sort is 0%.

Q: What about the DNA fragmentation Pre-sort (sperm [2]; post thaw 0 HR) of the same compound?
A: Its DNA fragmentation Pre-sort is 2.3%.

Q: And the DNA fragmentation Post Sort (sperm [2]; post thaw 24 HR)?
A: Its DNA fragmentation Post Sort is 0%.

Q: What about the DNA fragmentation Pre-sort (sperm [2]; post thaw 24 HR) of the same compound?
A: Its DNA fragmentation Pre-sort is 3.3%.

Q: What about the DNA fragmentation Post Sort (sperm [2]; post thaw 48 HR) of the same compound?
A: The DNA fragmentation Post Sort was 0.3%.

Q: What about the DNA fragmentation Pre-sort (sperm [2]; post thaw 48 HR) of the same compound?
A: Its DNA fragmentation Pre-sort is 3.7%.

Q: And the “better progressive motility than red quenched” value (sperm [3]; X population)?
A: The value was 7%.

Q: And the “more motile sperm than red quenched” value (sperm [3]; X population)?
A: Its value is “about 4.5%”.

Q: What about the Motile (sperm [3]; X population) of the same compound?
A: The Motile was 24.

Q: And the Progressive (sperm [3]; X population)?
A: Its Progressive is 18.5.

Q: What about the “better progressive motility than red quenched” value (sperm [3]; Y population) of the same compound?
A: Its value is 8%.

Q: What about the “more motile sperm than red quenched” value (sperm [3]; Y population) of the same compound?
A: Its value is about 6.5%.

Q: What about the Motile (sperm [3]; Y population) of the same compound?
A: Its Motile is 25.

Q: What about the Progressive (sperm [3]; Y population) of the same compound?
A: Its Progressive is 21.
